{
  "source": "patent US11739101B2",
  "about": "“Bifunctional degraders of hematopoietic progenitor kinase and therapeutic uses thereof” (Nurix Therapeutics, Inc., priority 2020, dated 2023)",
  "data": [
    {"molecular_target": "T1, HPK1 (Homo sapiens, UniProt Q92918)", "T1 construct": "A HiBiT tag was introduced by CRISPR on the N terminus of HPK1 in Jurkat cells; host or cells: Jurkat (ATCC TIB-152), monoclonal CRISPR HiBiT knock-in line", "T1 sequence (Q92918 whole entry)": "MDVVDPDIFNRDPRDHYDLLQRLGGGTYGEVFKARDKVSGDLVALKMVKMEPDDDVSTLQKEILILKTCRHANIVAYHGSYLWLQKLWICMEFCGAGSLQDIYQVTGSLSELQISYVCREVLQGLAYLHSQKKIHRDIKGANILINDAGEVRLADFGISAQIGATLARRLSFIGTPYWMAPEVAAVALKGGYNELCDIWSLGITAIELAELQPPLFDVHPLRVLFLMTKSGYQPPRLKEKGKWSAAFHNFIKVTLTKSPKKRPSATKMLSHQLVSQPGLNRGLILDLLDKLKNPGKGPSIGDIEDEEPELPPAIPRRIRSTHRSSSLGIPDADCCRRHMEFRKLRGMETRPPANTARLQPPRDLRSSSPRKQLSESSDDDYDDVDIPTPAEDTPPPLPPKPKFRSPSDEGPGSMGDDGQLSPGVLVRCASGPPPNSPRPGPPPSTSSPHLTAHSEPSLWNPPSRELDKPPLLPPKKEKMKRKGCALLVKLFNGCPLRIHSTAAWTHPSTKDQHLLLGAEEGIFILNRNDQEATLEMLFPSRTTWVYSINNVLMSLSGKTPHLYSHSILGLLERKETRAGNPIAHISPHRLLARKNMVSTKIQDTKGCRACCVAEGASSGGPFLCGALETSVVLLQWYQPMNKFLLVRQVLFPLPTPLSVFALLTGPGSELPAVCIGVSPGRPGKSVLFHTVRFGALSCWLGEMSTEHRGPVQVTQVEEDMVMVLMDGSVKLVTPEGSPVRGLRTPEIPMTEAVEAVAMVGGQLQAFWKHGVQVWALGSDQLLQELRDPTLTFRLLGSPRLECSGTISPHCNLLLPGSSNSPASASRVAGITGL", "assay": "HPK1 Cellular HiBiT Degradation Assay", "assay_type": "cell-based", "settings": "HiBiT-tagged HPK1 Jurkat cells, 24 hours, 10 uM to 0.1 nM; Dmax = 100 minus lowest % HPK1 remaining vs DMSO vehicle", "method_in_brief": "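Jurkat cells with CRISPR N-terminal HiBiT-tagged HPK1 were exposed to an 11-point 3.16-fold dilution series, 10 uM to 0.1 nM final, for 24 hours at 37° C./5% CO2. HPK1 was read by HiBiT lytic luminescence against DMSO as 100% and parental cells as background. Dmax is 100 minus the lowest % remaining from a four-parameter fit, with a parallel CellTiter-Glo viability check.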", "units": {"Dmax": "%"}, "values": [
      {"smiles": "Cc1cc(F)c(Nc2nc(-c3ccc4c(c3)N([C@H]3C[C@@H](N5CCCCC5)C3)C(=O)C43CCN(C(=O)c4ccc(C(=O)N5CCC(c6ccc7c(c6)C(=O)N(C6CCC(=O)NC6=O)C7=O)CC5)cc4)CC3)cc3ncn(C(C)C)c23)cc1C(=O)NC(C)C", "note": "(some centres unmarked) [Example 76, 5-[(6-{1′-[4-(4-{2-[2,6-dioxopiperidin-3-yl]-1,3-dioxo-2,3-dihydro-1H-isoindol-5-yl}piperidine-1-carbonyl)benzoyl]-2-oxo-1-[(1s,3s)-3-(piperidin-1-yl)cyclobutyl]-1,2-dihydrospiro[indole-3,4′-piperidin]-6-yl}-3-(propan-2-yl)-3H-imidazo[4,5-c]pyridin-4-yl)amino]-4-fluoro-2-methyl-N-(propan-2-yl)benzamide]", "Dmax": "45 to 65"},
      {"smiles": "Cc1cc(F)c(Nc2nc(-c3ccc4c(c3)N([C@H]3C[C@@H](N5CCCCC5)C3)C(=O)C43CCN(C(=O)CCOCCOCCOCCOCCOCCNc4cccc5c4C(=O)N(C4CCC(=O)NC4=O)C5=O)CC3)cc3ncn(C(C)C)c23)cc1C(=O)NC(C)C", "note": "(some centres unmarked) [Example 12, 5-((6-(1′-(1-((2-(2,6-dioxopiperidin-3-yl)-1,3-dioxoisoindolin-4-yl)amino)-3,6,9,12,15-pentaoxaoctadecan-18-oyl)-2-oxo-1-((1s,3s)-3-(piperidin-1-yl)cyclobutyl)spiro[indoline-3,4′-piperidin]-6-yl)-3-isopropyl-3H-imidazo[4,5-c]pyridin-4-yl)amino)-4-fluoro-N-isopropyl-2-methylbenzamide]", "Dmax": "45 to 65"},
      {"smiles": "Cc1cc(F)c(Nc2nc(-c3ccc4c(c3)N([C@H]3C[C@@H](N5CCCCC5)C3)C(=O)C43CCN(C(=O)c4ccc(N(C)C5CCN(c6ccc7c(c6)C(=O)N(C6CCC(=O)NC6=O)C7=O)CC5)cc4)CC3)cc3ncn(C(C)C)c23)cc1C(=O)NC(C)C", "note": "(some centres unmarked) [Example 97, 5-{[6-(1′-{4-[(1-{2-[2,6-dioxopiperidin-3-yl]-1,3-dioxoisoindol-5-yl}piperidin-4-yl)(methyl)amino]benzoyl}-2-oxo-1-[(1s,3s)-3-(piperidin-1-yl)cyclobutyl]spiro[indole-3,4′-piperidin]-6-yl)-3-isopropylimidazo[4,5-c]pyridin-4-yl]amino}-4-fluoro-N-isopropyl-2-methylbenzamide]", "Dmax": "45 to 65"},
      {"smiles": "Cc1cc(F)c(Nc2nc(-c3ccc4c(c3)N([C@H]3C[C@@H](N5CCCCC5)C3)C(=O)C43CCN(C(=O)CCCCCCCC(=O)N[C@H](C(=O)N4C[C@H](O)C[C@H]4C(=O)N[C@@H](C)c4ccc(-c5scnc5C)cc4)C(C)(C)C)CC3)cc3ncn(C(C)C)c23)cc1C(=O)NC(C)C", "note": "[Example 10, (2S,4R)-1-((S)-2-(9-(6-(4-((2-fluoro-5-(isopropylcarbamoyl)-4-methylphenyl)amino)-3-isopropyl-3H-imidazo[4,5-c]pyridin-6-yl)-2-oxo-1-((1s,3s)-3-(piperidin-1-yl)cyclobutyl)spiro[indoline-3,4′-piperidin]-1′-yl)-9-oxononanamido)-3,3-dimethylbutanoyl)-4-hydroxy-N—((S)-1-(4-(4-methylthiazol-5-yl)phenyl)ethyl)pyrrolidine-2-carboxamide]", "Dmax": "> 65"},
      {"smiles": "Cc1cc(F)c(Nc2nc(-c3ccc4c(c3)N([C@H]3C[C@@H](N5CCCCC5)C3)C(=O)C43CCN(C(=O)CCCCCCCCCNc4cccc5c4C(=O)N(C4CCC(=O)NC4=O)C5=O)CC3)cc3ncn(C(C)C)c23)cc1C(=O)NC(C)C", "note": "(some centres unmarked) [Example 1, 5-((6-(1′-(10-((2-(2,6-dioxopiperidin-3-yl)-1,3-dioxoisoindolin-4-yl)amino)decanoyl)-2-oxo-1-((1s,3s)-3-(piperidin-1-yl)cyclobutyl)spiro[indoline-3,4′-piperidin]-6-yl)-3-isopropyl-3H-imidazo[4,5-c]pyridin-4-yl)amino)-4-fluoro-N-isopropyl-2-methylbenzamide]", "Dmax": "< 45"},
      {"smiles": "Cc1cc(F)c(Nc2nc(-c3ccc4c(c3)N([C@H]3C[C@@H](N5CCCCC5)C3)C(=O)C43CCN(C(=O)CN4CCN(CCCc5cccc6c5C(=O)N(C5CCC(=O)NC5=O)C6=O)CC4)CC3)cc3ncn(C(C)C)c23)cc1C(=O)NC(C)C", "note": "(some centres unmarked) [Example 21, 5-{[6-(1′-{2-[4-(3-{2-[2,6-dioxopiperidin-3-yl]-1,3-dioxo-2,3-dihydro-1H-isoindol-4-yl}propyl)piperazin-1-yl]acetyl}-2-oxo-1-[(1s,3s)-3-(piperidin-1-yl)cyclobutyl]-1,2-dihydrospiro[indole-3,4′-piperidin]-6-yl)-3-(propan-2-yl)-3H-imidazo[4,5-c]pyridin-4-yl]amino}-4-fluoro-2-methyl-N-(propan-2-yl)benzamide]", "Dmax": "< 45"},
      {"smiles": "Cc1cc(F)c(Nc2nc(-c3ccc4c(c3)N([C@H]3C[C@@H](N5CCCCC5)C3)C(=O)C43CCN(C(=O)CCC4CCCN(CC(=O)NC(C(=O)N5C[C@H](O)C[C@H]5C(=O)N[C@@H](C)c5ccc(-c6scnc6C)cc5)C(C)(C)C)C4)CC3)cc3ncn(C(C)C)c23)cc1C(=O)NC(C)C", "note": "(stereo partly drawn) [Example 48, (2S,4R)-1-((2S)-2-(2-(3-(3-(6-(4-((2-fluoro-5-(isopropylcarbamoyl)-4-methylphenyl)amino)-3-isopropyl-3H-imidazo[4,5-c]pyridin-6-yl)-2-oxo-1-((1s,3s)-3-(piperidin-1-yl)cyclobutyl)spiro[indoline-3,4′-piperidin]-1′-yl)-3-oxopropyl)piperidin-1-yl)acetamido)-3,3-dimethylbutanoyl)-4-hydroxy-N—((S)-1-(4-(4-methylthiazol-5-yl)phenyl)ethyl)pyrrolidine-2-carboxamide]", "Dmax": "45 to 65"},
      {"smiles": "Cc1cc(F)c(Nc2nc(-c3ccc4c(c3)N([C@H]3C[C@@H](N5CCCCC5)C3)C(=O)C43CCN(C(=O)[C@@H]4CCN(C(=O)[C@H]5CC[C@H](Nc6cccc7c6C(=O)N(C6CCC(=O)NC6=O)C7=O)CC5)C4)CC3)cc3ncn(C(C)C)c23)cc1C(=O)NC(C)C", "note": "(stereo partly drawn) [Example 52, 4-fluoro-2-methyl-5-[(6-{2-oxo-1′-[(3R)-1-[(1R,4R)-4-({2-[2,6-dioxopiperidin-3-yl]-1,3-dioxo-2,3-dihydro-1H-isoindol-4-yl}amino)cyclohexanecarbonyl]pyrrolidine-3-carbonyl]-1-[(1s,3s)-3-(piperidin-1-yl)cyclobutyl]-1,2-dihydrospiro[indole-3,4′-piperidin]-6-yl}-3-(propan-2-yl)-3H-imidazo[4,5-c]pyridin-4-yl)amino]-N-(propan-2-yl)benzamide]", "Dmax": "45 to 65"},
      {"smiles": "Cc1cc(F)c(Nc2nc(-c3ccc4c(c3)N(C3CC(N5CCCCC5)C3)C(=O)C43CCN(C(=O)CCCCCCCCCC(=O)N[C@H](C(=O)N4C[C@H](O)C[C@H]4C(=O)N[C@@H](C)c4ccc(-c5scnc5C)cc4)C(C)(C)C)CC3)cc3ncn(C(C)C)c23)cc1C(=O)NC(C)C", "note": "(stereo partly drawn) [Example 8, (2S,4R)-1-((S)-2-(11-(6-(4-((2-fluoro-5-(isopropylcarbamoyl)-4-methylphenyl)amino)-3-isopropyl-3H-imidazo[4,5-c]pyridin-6-yl)-2-oxo-1-((1s,3s)-3-(piperidin-1-yl)cyclobutyl)spiro[indoline-3,4′-piperidin]-1′-yl)-11-oxoundecanamido)-3,3-dimethylbutanoyl)-4-hydroxy-N—((S)-1-(4-(4-methylthiazol-5-yl)phenyl)ethyl)pyrrolidine-2-carboxamide]", "Cellular HPK1 HiBiT: Dmax (%)": "A (A>65%)"},
      {"smiles": "Cc1cc(F)c(Nc2nc(-c3ccc4c(c3)N([C@H]3C[C@@H](N5CCCCC5)C3)C(=O)C43CCN(C(=O)C4CN(C(=O)C5CCN(c6ccc7c(c6)C(=O)N(C6CCC(=O)NC6=O)C7=O)CC5)C4)CC3)cc3ncn(C(C)C)c23)cc1C(=O)NC(C)C", "note": "(some centres unmarked) [Example 39, 5-[(6-{1′-[1-(1-{2-[2,6-dioxopiperidin-3-yl]-1,3-dioxo-2,3-dihydro-1H-isoindol-5-yl}piperidine-4-carbonyl)azetidine-3-carbonyl]-2-oxo-1-[(1s,3s)-3-(piperidin-1-yl)cyclobutyl]-1,2-dihydrospiro[indole-3,4′-piperidin]-6-yl}-3-(propan-2-yl)-3H-imidazo[4,5-c]pyridin-4-yl)amino]-4-fluoro-2-methyl-N-(propan-2-yl)benzamide]", "Dmax": "< 45"},
      {"smiles": "Cc1cc(F)c(Nc2nc(-c3ccc4c(c3)N([C@H]3C[C@@H](N5CCCCC5)C3)C(=O)C43CCN(C(=O)c4ccc(C5CCN(CC(=O)NCCNc6cccc7c6C(=O)N(C6CCC(=O)NC6=O)C7=O)CC5)cc4)CC3)cc3ncn(C(C)C)c23)cc1C(=O)NC(C)C", "note": "(some centres unmarked) [Example 88, 5-[(6-{1′-[4-(1-{[(2-{[2-(2,6-dioxopiperidin-3-yl)-1,3-dioxoisoindol-4-yl]amino}ethyl)carbamoyl]methyl}piperidin-4-yl)benzoyl]-2-oxo-1-[(1s,3s)-3-(piperidin-1-yl)cyclobutyl]spiro[indole-3,4′-piperidin]-6-yl}-3-isopropylimidazo[4,5-c]pyridin-4-yl)amino]-4-fluoro-N-isopropyl-2-methylbenzamide]", "Dmax": "> 65"}
    ]}
  ]
}
